Source: ChEMBL document CHEMBL1201862, “PubChem BioAssay data set” (2004)
Activity calls are given as the source filed them.

Assays:
[1] = biological target: T1, Delta-type opioid receptor (Homo sapiens, UniProt P41143); test: HTS Image-Based Screen for Antagonists of the DOR Receptor. [Related pubchem assays (depositor defined):AID1777, AID1785, AID1786, AID2133]; type: functional
Mu-type opioid receptor = Mu-type opioid receptor (Homo sapiens, UniProt P35372); test: HTS Image-Based Screen for Agonists of the MOR Receptor. [Related pubchem assays (depositor defined):AID1777, AID1785, AID1786, AID2133]; type: functional;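 note: imaging of beta-arrestin GFP recruitment into spots after receptor activation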
Chain of Mu-type opioid receptor (P35372 whole entry): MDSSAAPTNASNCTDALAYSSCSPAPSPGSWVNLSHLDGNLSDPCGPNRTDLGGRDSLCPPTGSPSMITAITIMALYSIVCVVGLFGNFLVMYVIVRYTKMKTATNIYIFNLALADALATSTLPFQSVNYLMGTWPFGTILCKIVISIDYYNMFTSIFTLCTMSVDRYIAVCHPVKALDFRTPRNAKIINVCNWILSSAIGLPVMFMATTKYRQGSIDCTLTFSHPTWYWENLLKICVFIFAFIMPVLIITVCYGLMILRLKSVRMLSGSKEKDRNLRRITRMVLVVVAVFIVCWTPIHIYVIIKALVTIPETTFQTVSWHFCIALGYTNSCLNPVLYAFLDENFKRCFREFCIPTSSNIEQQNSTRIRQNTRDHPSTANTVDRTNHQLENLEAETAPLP

[2] = biological target: T1, Delta-type opioid receptor; test: HTS Image-Based Screen for Agonists of the DOR Receptor. [Related pubchem assays (depositor defined):AID1777, AID1786, AID2133]; type: functional
[3] = Trypanosoma cruzi growth suppression in host cells – NIH3T3 host cells, beta-gal luminescence, confirmation (AID 2044); type: functional, cell-based;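 note: intracellular parasites grown in NIH/3T3 mouse fibroblasts as host cells; luminescent beta-galactosidase reporter signal from transgenic T. cruzi replicating inside host cells; inhibitors lower the luminescence signal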
[4] = viability of PTEN-deleted HCT116 cells – cell-based, HCT116 PTEN knockout, dose response (AID 1047); type: functional;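 note: HCT116 colon tumor cells with PTEN knocked out; cells exposed to compound for 60 hours before readout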
[5] = biological target: T2, Kappa-type opioid receptor (Homo sapiens, UniProt P41145); type: functional
T2 sequence (P41145 whole entry): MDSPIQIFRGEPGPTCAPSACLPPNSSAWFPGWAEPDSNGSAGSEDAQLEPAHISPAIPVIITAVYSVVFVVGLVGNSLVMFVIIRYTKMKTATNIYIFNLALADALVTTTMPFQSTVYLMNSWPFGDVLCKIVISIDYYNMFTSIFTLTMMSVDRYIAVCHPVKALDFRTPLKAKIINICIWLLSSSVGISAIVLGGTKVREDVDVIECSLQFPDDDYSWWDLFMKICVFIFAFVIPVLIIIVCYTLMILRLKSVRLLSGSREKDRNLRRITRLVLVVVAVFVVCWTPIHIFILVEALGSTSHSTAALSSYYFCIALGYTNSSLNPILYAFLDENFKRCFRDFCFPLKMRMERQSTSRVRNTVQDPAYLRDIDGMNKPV

[6] = NIH3T3 cell viability loss – ATP luminescence, mouse fibroblasts, counter-screen, dose response (AID 2010); type: functional, cell-based;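 note: cells exposed to compound for about 90 hours before reading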
[7] = biological target: T3, Bifunctional protein GlmU (Mycobacterium tuberculosis, UniProt P9WMN3); test: Inhibitors of Mycobacterial Glucosamine-1-phosphate acetyl transferase (GlmU). Secondary screen.; set-up: species or system Mycobacterium tuberculosis H37Rv
T3 sequence (P9WMN3 whole entry): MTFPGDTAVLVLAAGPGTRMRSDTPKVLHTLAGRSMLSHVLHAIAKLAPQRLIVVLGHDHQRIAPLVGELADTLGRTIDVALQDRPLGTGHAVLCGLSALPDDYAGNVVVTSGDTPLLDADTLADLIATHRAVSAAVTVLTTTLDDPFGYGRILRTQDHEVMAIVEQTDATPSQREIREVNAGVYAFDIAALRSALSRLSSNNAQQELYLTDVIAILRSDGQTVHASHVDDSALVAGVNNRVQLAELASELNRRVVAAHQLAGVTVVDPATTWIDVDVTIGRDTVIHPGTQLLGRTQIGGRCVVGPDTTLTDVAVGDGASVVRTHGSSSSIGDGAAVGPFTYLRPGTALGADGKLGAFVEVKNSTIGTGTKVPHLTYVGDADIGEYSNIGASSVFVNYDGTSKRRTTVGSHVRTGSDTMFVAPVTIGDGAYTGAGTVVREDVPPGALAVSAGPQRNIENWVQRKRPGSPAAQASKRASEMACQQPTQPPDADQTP

Beta-galactosidase = Beta-galactosidase (Escherichia coli, UniProt Q8VNN2); type: functional
Chain of Beta-galactosidase (Q8VNN2 whole entry): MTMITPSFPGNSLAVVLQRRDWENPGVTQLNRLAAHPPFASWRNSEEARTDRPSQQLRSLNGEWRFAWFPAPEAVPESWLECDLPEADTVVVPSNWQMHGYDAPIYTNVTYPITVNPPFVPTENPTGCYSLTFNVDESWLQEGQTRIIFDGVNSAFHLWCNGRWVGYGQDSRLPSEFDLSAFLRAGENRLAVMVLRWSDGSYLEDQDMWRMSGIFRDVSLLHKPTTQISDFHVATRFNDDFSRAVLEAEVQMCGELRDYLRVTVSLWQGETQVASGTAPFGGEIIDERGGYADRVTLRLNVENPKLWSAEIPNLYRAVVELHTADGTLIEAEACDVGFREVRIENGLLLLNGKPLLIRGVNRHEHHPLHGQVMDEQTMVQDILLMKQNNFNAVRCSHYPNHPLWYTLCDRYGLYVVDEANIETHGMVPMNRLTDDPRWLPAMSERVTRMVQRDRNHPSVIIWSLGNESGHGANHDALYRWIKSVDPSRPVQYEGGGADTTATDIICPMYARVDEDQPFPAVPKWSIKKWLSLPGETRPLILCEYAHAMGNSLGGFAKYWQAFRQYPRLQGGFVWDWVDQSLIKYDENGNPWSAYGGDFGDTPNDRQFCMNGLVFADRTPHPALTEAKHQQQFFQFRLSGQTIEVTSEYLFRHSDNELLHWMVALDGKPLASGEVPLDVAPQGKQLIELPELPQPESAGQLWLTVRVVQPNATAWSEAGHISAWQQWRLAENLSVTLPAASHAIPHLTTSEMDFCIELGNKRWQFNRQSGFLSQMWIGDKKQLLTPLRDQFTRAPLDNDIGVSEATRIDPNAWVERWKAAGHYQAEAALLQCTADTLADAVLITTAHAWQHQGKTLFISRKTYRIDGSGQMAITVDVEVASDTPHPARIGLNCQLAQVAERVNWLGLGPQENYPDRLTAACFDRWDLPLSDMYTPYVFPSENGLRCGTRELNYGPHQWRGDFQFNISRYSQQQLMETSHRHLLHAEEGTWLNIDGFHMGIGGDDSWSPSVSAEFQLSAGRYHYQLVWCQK

[8] = viability of HCT116 lacking mutant beta-catenin – cell-based, human colon tumor, dose response (AID 1045); type: functional;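 note: HCT116 colon tumor cells with beta catenin knocked out; cells exposed to compound for 60 hours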
[9] = biological target: T2, Kappa-type opioid receptor; type: functional; remark: listed apart in the source
[10] = THP-1 cell cytotoxicity, dose response, cytotoxicity control for non-replicating M. tuberculosis project (AID 489025); type: functional
[11] = HepG2 cell cytotoxicity, dose response, cytotoxicity control for non-replicating M. tuberculosis project (AID 489018); type: functional; conditions: Mycobacterium tuberculosis
[12] = Vero E6 cell cytotoxicity, dose response, cytotoxicity control for non-replicating M. tuberculosis project, secondary assay (AID 492998); type: functional, VeroE6; conditions: Vero C1008
[13] = biological target: T4, Microphthalmia-associated transcription factor (Homo sapiens, UniProt O75030); test: reducers of TRPM1 reporter luminescence, concentration series – cell-based, SK-MEL-5, cherry-picked, set 3, MITF inhibitor project, dose response (AID 493073); type: functional;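 note: SK-MEL-5 melanoma cells with luciferase driven by the MITF target TRPM1 promoter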
T4 sequence (O75030 whole entry): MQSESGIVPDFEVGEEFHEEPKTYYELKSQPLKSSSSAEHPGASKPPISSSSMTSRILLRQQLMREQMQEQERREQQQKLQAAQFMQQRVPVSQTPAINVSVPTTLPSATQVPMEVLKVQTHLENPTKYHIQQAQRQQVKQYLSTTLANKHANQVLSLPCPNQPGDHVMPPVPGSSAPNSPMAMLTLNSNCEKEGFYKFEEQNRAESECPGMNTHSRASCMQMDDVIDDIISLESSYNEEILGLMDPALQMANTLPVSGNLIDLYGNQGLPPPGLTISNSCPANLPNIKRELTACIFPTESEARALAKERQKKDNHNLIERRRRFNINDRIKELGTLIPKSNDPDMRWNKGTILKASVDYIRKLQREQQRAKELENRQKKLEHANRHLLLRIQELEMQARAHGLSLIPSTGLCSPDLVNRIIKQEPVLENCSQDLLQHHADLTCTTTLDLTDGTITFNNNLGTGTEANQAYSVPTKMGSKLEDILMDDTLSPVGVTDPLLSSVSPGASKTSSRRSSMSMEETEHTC

cells = type: functional
CHO = CHO cell viability loss, potency – luminescence, cytotoxicity control for TLR9-MyD88 binding inhibitor project, dose response (AID 588339); type: functional, cell-based, hamster; conditions: Cricetulus griseus;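 note: CHO cells stably coexpressing TLR9 and MyD88 fusions from primary screen; compound exposure lasted 48 hours before viability readout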
Beta Lactamase = Beta Lactamase (Pseudomonas aeruginosa, UniProt Q932Y6); test: BLA reporter interference, concentration series – BLA reporter cells, FRET fluorescence, artefact control for TLR9-MyD88 binding inhibitor project, dose response (AID 588341); type: cell-based;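 note: cell based assay in CHO-K1 cells stably expressing beta-lactamase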
Chain of Beta Lactamase (Q932Y6 whole entry): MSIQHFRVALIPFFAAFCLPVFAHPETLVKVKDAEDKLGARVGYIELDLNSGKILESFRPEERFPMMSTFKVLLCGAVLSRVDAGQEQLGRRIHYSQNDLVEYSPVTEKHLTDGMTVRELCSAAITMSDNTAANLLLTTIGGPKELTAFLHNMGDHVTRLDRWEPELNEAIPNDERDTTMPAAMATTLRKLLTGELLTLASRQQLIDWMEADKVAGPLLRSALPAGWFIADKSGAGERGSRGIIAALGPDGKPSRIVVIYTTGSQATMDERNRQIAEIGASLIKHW

[14] = reduction of Shn3 3'UTR-driven luciferase in osteoblasts – cell-based, Clone20 osteoblasts, firefly luciferase, cherry-picked, dose response (AID 624132); type: functional;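 note: firefly luciferase luminescence from reporter carrying the Shn3 3'UTR in osteoblasts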
[15] = loss of viability in HepG2 cells – cell-based, CellTiter-Glo, cherry-picked, cytotoxicity control for Shn3 inhibitor project, dose response (AID 624134); type: functional
[16] = non-specific 3'UTR reporter inhibition in Clone20-Shn3RL – cell-based, Renilla luciferase, cherry-picked, counter-screen for Shn3 inhibitor project, dose response (AID 624133); type: functional
Fatty acid synthase [17] = biological target: T5, Fatty acid synthase (Homo sapiens, UniProt P49327); test: inhibition of human FAS-TE enzyme activity – biochemical, endpoint fluorescence intensity, uHTS hits, dose response (AID 624327); type: functional;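 note: fluorescence from hydrolysis of an O-methyl fluorescein acyl ester substrate by the enzyme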
T5 sequence (P49327 whole entry): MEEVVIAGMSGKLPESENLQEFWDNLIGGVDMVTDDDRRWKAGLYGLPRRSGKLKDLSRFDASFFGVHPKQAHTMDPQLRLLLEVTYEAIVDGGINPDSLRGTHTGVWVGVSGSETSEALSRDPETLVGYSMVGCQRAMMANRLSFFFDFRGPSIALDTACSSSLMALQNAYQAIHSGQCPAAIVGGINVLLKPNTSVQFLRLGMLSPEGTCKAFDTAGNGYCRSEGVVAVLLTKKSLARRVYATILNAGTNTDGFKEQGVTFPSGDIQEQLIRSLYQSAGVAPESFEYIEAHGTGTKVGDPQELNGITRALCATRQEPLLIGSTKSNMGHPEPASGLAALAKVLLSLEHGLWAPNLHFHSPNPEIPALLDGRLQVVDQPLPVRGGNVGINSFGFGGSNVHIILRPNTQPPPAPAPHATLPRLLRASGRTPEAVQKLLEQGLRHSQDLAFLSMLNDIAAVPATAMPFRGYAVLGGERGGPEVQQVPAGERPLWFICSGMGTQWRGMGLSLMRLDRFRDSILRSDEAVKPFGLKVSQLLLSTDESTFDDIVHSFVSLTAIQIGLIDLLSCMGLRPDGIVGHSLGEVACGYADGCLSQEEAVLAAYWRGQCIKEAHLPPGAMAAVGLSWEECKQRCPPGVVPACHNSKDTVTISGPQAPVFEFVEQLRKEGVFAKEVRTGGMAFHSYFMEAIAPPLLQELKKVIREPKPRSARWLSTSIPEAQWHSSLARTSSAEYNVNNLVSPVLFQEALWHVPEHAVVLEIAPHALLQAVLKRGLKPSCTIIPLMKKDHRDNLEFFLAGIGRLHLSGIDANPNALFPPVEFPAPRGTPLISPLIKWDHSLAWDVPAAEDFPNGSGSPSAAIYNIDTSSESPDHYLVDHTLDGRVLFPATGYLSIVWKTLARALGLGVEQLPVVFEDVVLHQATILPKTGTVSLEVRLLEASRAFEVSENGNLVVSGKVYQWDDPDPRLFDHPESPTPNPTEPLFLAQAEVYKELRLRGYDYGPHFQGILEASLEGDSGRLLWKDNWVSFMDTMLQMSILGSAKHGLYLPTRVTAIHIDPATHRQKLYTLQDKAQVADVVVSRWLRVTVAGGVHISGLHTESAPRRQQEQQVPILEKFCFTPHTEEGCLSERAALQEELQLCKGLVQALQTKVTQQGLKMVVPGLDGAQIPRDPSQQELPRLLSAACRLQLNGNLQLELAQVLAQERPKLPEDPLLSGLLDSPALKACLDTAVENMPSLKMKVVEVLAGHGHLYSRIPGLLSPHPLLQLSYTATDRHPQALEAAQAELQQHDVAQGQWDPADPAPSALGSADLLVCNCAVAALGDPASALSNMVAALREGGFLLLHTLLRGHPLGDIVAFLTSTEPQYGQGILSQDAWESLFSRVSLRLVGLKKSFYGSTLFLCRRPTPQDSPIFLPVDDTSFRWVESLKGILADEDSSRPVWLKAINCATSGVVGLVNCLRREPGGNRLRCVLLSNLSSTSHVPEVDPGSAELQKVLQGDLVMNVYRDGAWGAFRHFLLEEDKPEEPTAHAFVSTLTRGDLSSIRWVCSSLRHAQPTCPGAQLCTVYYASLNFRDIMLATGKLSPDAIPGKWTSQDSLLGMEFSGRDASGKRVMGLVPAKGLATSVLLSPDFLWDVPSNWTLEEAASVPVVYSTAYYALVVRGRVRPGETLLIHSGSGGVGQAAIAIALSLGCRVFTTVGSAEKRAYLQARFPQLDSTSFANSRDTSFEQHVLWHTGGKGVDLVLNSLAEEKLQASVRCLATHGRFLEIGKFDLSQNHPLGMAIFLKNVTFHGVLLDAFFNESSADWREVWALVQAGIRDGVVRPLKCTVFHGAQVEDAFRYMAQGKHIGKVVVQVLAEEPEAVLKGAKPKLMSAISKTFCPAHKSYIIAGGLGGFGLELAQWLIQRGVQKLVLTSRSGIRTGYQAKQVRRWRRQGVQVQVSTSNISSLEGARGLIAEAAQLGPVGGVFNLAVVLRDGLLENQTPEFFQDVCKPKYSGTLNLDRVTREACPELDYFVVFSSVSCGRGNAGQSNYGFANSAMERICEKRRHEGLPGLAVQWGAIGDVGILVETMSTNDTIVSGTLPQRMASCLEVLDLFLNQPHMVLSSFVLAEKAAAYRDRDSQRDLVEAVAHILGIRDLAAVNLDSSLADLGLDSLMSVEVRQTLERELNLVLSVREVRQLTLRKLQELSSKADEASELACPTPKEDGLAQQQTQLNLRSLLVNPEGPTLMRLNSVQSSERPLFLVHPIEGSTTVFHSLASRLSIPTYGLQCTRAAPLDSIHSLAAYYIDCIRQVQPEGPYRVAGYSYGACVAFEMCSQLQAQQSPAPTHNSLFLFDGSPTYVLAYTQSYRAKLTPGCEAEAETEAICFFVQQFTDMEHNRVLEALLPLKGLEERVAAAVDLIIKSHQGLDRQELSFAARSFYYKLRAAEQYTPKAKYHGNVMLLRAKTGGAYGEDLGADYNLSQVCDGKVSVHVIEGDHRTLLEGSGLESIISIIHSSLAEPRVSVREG

Fatty acid synthase [18] = biological target: T5, Fatty acid synthase; test: inhibition of human FAS-TE enzyme activity – biochemical, kinetic fluorescence intensity, dose response (AID 624326); type: functional;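 note: rate of fluorescence rise from hydrolysis of a fluorogenic O-methyl fluorescein ester substrate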
[19] = biological target: T6, Sentrin-specific protease 8 (Homo sapiens, UniProt Q96LD8); test: inhibition of human SENP8 cleavage activity – biochemical, luminescence, SAR follow-up (AID 504501); type: functional
T6 sequence (Q96LD8 whole entry): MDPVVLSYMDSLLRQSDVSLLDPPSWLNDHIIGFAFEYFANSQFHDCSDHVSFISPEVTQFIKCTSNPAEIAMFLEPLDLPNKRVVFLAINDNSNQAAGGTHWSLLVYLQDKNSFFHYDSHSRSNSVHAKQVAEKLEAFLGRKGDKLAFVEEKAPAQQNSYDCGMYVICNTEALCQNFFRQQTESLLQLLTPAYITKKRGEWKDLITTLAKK

Caspase-3 [20] = biological target: T7, Caspase-3 (Homo sapiens, UniProt P42574); test: SAR Analysis of small molecule inhibitors of Sentrin-specific proteases (SENPs) using a Caspase-3 Selectivity assay. [Related pubchem assays (depositor defined):AID2540, AID2599, AID434973, AID489001]; type: functional
T7 sequence (P42574 whole entry): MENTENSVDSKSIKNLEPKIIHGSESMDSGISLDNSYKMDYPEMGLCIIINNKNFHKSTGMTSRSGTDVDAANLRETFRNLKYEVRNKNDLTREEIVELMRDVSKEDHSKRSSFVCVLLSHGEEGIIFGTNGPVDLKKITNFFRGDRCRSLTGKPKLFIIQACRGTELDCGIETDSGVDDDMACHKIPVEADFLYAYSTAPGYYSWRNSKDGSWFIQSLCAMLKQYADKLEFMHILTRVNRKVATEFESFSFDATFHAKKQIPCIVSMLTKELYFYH

[21] = biological target: T8, Sentrin-specific protease 6 (Homo sapiens, UniProt Q9GZR1); test: SAR Analysis of small molecule inhibitors of Sentrin-specific protease 6 (SENP6) using a Luminescent assay. [Related pubchem assays (depositor defined):AID2582, AID2599]; type: functional
T8 sequence (Q9GZR1 whole entry): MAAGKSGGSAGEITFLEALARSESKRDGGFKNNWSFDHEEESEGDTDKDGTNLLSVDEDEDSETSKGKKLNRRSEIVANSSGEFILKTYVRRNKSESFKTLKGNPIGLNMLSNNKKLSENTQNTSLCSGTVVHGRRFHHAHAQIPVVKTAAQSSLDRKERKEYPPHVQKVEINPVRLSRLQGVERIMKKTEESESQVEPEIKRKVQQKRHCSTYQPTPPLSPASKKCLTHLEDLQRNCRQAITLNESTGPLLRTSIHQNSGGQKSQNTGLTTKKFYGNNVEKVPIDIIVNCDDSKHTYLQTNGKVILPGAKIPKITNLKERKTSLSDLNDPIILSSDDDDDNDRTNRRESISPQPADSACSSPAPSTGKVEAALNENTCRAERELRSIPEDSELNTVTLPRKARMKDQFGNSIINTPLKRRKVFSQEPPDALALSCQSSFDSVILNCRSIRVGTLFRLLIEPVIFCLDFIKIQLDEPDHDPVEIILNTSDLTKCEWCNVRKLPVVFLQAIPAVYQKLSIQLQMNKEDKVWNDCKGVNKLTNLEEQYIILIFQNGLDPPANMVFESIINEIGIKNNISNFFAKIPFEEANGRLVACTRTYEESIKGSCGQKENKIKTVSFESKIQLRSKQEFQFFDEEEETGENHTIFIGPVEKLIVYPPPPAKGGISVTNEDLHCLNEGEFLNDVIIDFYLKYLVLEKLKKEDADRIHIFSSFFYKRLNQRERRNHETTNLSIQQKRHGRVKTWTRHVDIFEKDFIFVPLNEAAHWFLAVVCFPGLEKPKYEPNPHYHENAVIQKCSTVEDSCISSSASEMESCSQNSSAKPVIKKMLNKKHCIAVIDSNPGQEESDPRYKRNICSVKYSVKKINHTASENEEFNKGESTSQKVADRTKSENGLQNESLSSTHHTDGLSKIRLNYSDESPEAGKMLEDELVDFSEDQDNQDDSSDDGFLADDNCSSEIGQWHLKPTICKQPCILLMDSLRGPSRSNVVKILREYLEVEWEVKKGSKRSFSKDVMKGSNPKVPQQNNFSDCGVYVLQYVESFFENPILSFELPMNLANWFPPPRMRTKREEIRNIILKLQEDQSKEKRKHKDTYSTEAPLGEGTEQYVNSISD

[22] = biological target: T9, Sentrin-specific protease 7 (Homo sapiens, UniProt Q9BQF6); test: inhibition of human SENP7 cleavage activity – biochemical, luminescence, SAR follow-up (AID 504497); type: functional
T9 sequence (Q9BQF6 whole entry): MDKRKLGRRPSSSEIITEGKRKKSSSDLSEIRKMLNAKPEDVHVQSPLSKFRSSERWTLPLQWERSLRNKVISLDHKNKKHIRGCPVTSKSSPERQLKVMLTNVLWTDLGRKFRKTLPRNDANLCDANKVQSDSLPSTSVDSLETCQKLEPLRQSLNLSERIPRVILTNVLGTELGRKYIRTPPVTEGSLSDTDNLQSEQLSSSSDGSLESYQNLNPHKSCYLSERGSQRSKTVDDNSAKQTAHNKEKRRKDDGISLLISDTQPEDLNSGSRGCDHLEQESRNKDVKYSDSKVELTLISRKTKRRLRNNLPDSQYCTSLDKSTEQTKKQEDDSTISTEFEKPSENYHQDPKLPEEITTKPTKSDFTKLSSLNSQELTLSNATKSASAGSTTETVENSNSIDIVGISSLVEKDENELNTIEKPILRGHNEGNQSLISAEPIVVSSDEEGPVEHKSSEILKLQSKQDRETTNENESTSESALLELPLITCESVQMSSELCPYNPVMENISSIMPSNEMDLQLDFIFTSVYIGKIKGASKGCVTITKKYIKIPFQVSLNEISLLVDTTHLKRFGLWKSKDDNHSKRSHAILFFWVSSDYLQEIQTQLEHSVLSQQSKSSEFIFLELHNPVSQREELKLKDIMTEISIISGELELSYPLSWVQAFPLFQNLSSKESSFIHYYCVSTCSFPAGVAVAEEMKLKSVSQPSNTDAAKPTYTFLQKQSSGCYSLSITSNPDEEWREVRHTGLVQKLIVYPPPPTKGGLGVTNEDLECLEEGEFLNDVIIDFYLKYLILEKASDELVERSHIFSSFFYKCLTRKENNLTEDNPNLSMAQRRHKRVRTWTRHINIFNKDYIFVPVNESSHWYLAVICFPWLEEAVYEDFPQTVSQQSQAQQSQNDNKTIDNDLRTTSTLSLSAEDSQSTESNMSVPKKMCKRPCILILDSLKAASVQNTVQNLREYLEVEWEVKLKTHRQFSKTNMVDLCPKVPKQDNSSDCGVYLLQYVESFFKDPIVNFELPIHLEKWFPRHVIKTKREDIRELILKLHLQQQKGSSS

Caspase-3 [23] = biological target: T7, Caspase-3; type: functional
[24] = biological target: T9, Sentrin-specific protease 7; type: functional
[25] = biological target: T8, Sentrin-specific protease 6; type: functional
[26] = biological target: T6, Sentrin-specific protease 8; type: functional

T1 sequence (P41143 whole entry): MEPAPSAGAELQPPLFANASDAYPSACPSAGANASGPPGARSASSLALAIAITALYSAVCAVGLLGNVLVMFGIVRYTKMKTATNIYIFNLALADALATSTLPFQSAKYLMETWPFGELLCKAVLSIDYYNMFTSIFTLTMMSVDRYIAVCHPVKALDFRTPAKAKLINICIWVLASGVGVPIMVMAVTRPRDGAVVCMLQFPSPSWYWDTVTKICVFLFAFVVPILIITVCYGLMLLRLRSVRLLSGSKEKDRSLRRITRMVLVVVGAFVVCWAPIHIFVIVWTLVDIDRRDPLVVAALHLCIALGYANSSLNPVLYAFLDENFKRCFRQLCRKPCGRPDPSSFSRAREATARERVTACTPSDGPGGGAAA

CC(=O)OCCNc1cc(Sc2nc3ccccc3[nH]2)c2nonc2c1[N+](=O)[O-]
IC50 [1]: > 32 µM (inactive) | EC50 (Mu-type opioid receptor): > 32 µM (inactive) | EC50 [2]: > 32 µM (inactive) | EC50 [3]: 2.47 µM (active) | EC50 [4]: 4.91 µM (active) | IC50 [5]: 5.01 µM (active) | EC50 [6]: 3.66 µM (active) | IC50 [7]: 116 µM (active) | EC50 (Beta-galactosidase): > 31.5 µM (inactive) | EC50 [8]: 4.64 µM (active) | IC50 [9]: 17.1 µM | CC50 [10]: 19.9 µM (active) | CC50 [11]: 12.4 µM (active) | CC50 [12]: 13.5 µM (active) | AC50 [13]: 11.5 µM (active) | IC50 (cells): 5.83 µM (active) | IC50 (CHO): 3.06 µM (active) | IC50 (Beta Lactamase): 10 µM (inactive) | AC50 [14]: 1.86 µM (active) | AC50 [15]: 17.5 µM (active) | AC50 [16]: 6.26 µM (active) | IC50 (Fatty acid synthase [17]): 1.75 µM (active) | IC50 (Fatty acid synthase [18]): 2.59 µM (active)

C(=N\Nc1cc(N2CCCC2)nc(N2CCCC2)n1)/c1ccccc1
IC50 [19]: > 99 µM (inactive) | IC50 (Caspase-3 [20]): > 99 µM (inactive) | IC50 [21]: 15.1 µM (active) | IC50 [22]: 89.9 µM (active)

Cc1cc(N/N=C/c2ccc3c(c2)OCO3)nc2ccccc12
IC50 (Caspase-3 [23]): 27.6 µM (active) | IC50 [24]: 4.64 µM (active) | IC50 [25]: 17.6 µM (active) | IC50 [26]: 21.9 µM (active)
